Measurements from ChEMBL document CHEMBL1240315, “Allosteric inhibition of kinesin-5 modulates its processive directional motility” (Nat Chem Biol, 2006).
Active and inactive are the calls of the source. The calls are words filed in the database; no cut-off is given here.

How the values were obtained:
[1] = biological target: T1, Kinesin-like protein KIF11 (Homo sapiens) (UniProt P52732); conditions: 25 uM
T1 sequence (whole entry): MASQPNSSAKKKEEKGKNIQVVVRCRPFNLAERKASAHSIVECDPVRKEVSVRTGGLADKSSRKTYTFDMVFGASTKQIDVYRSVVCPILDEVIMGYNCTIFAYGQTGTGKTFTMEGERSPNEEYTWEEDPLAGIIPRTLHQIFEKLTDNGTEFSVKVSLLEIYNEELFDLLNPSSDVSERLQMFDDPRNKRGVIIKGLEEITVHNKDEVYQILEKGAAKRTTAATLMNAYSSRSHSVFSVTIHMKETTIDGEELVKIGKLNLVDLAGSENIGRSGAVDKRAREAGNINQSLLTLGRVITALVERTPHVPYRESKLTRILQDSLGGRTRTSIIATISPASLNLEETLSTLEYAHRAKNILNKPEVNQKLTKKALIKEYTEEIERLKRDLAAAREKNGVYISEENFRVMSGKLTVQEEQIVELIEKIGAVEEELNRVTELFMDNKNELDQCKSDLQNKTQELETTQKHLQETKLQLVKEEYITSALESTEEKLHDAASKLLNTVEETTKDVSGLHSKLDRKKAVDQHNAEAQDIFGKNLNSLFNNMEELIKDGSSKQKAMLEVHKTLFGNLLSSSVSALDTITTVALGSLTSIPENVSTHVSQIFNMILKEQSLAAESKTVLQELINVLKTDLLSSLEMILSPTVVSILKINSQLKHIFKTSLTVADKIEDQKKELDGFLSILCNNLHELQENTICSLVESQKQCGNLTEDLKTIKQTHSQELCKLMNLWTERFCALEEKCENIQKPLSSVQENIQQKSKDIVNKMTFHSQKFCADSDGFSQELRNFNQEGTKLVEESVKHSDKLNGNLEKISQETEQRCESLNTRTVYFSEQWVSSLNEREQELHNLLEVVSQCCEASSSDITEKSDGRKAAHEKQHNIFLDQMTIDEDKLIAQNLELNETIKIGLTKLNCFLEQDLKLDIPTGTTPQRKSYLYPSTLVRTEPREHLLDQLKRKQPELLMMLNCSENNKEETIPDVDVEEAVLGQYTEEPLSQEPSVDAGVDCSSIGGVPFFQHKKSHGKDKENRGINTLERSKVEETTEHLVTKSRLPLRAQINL
Description: Inhibition of recombinant Eg5-GFP in cell-free system assessed as Eg5 motility speed on microtubule at 25 uM by mean square displacement analysis in presence of 2 mM ATP

[2] = biological target: T1, Kinesin-like protein KIF11 (Homo sapiens); conditions: 100 uM
Description: Inhibition of recombinant Eg5-GFP in cell-free system assessed as Eg5 motility speed on microtubule at 100 uM by mean square displacement analysis in presence of 2 mM ATP

[3] = biological target: T1, Kinesin-like protein KIF11 (Homo sapiens); conditions: 100 uM; remark: listed apart in the source
Description: Inhibition of recombinant Eg5-GFP in cell-free system assessed as reduction of Eg5 motility speed on microtubule at 100 uM by kymograph analysis

[4] = biological target: T1, Kinesin-like protein KIF11 (Homo sapiens); conditions: 100 uM; remark: listed apart in the source
Description: Inhibition of recombinant Eg5-GFP in cell-free system assessed as reduction in mean duration of Eg5-GFP-microtubule interaction at 100 uM by kymograph analysis

[5] = biological target: T1, Kinesin-like protein KIF11 (Homo sapiens); conditions: 100 uM; remark: listed apart in the source
Description: Inhibition of recombinant Eg5-GFP in cell-free system assessed as Eg5-GFP movement along microtubules without directionality at 100 uM by mean square displacement analysis in presence of 2 mM ADP

[6] = biological target: T1, Kinesin-like protein KIF11 (Homo sapiens); experiment: Binding affinity to recombinant Eg5-GFP in cell-free system assessed as Eg5-GFP movement along microtubules without directionality at 2 mM by kymograph analysis
[7] = biological target: T1, Kinesin-like protein KIF11 (Homo sapiens); experiment: Binding affinity to recombinant Eg5-GFP in cell-free system assessed as Eg5-GFP movement along microtubules without directionality at 2 mM by mean square displacement analysis

Activity (nanometer2/sec) [1]	Activity (nanometer2/sec) [2]	inhibition [3]	inhibition [4]	Activity (nanometer2/sec) [5]	Activity (nanometer2/sec) [6]	Activity (nanometer2/sec) [7]	SMILES
1460	2140	inactive	inactive	3820	–	–	CCOC(=O)C1=C(C)NC(=S)NC1c1cccc(O)c1 (configuration not stated)
–	–	–	–	–	4	771	Nc1ncnc2c1ncn2[C@@H]1O[C@H](COP(=O)(O)OP(=O)(O)O)[C@@H](O)[C@H]1O
